Where two headings read alike, the source gives them in different places.
Assay: Metabolic stability in human liver microsomes (in vitro t1/2)
Assay type: in vitro ADME
Details: pooled human liver microsomes, pooled human liver microsomes 3.0 mg/mL, test compound 0.5 μM, NADPH, 37° C.
Protocol: Microsomal Assay: Human liver microsomes (20 mg/mL) were obtained from Xenotech, LLC (Lenexa, Kans.). βnicotinamide adenine dinucleotide phosphate, reduced form (NADPH), magnesium chloride (MgCl2), and dimethyl sulfoxide (DMSO) were purchased from SigmaAldrich. The incubation mixtures were prepared according to Table 2:
Determination of Metabolic Stability: Two aliquots of this reaction mixture were used for a compound of this invention. The aliquots were incubated in a shaking water bath at 37° C. for 3 minutes. The test compound was then added into each aliquot at a final concentration of 0.5 μM. The reaction was initiated by the addition of cofactor (NADPH) into one aliquot (the other aliquot lacking NADPH served as the negative control). Both aliquots were then incubated in a shaking water bath at 37° C. Fifty microliters (50 μL) of the incubation mixtures were withdrawn in triplicate from each aliquot at 0, 5, 10, 20, and 30 minutes and combined with 50 μL of ice-cold acetonitrile to terminate the reaction. The same procedure was followed for gefitinib and 7-ethoxycoumarin, the positive control. Testing was done in triplicate.
Data analysis: The in vitro half-lives (t1/2s) for test compounds were calculated from the slopes of the linear regression of % parent remaining (ln) vs incubation time relationship using the following formula: in vitro t1/2=0.693/k, where k=[slope of linear regression of % parent remaining(ln)vs incubation time] Data analysis was performed using Microsoft Excel Software.
The metabolic stability of compounds of Formula A or I was tested using pooled liver microsomal incubations. Full scan LCMS analysis was then performed to detect major metabolites. Samples of the test compounds, exposed to pooled human liver microsomes, were analyzed using HPLCMS (or MS/MS) detection. For determining metabolic stability, multiple reaction monitoring (MRM) was used to measure the disappearance of the test compounds. For metabolite detection, Q1 full scans were used as survey scans to detect the major metabolites.

[1] = Experiment No. 1, read-out: t½ (min), Experiment No. 1
[2] = Experiment No. 2, read-out: t½ (min), Experiment No. 2
[3] = Experiment No. 3, read-out: t½ (min), Experiment No. 3
[4] = average of experiments 1-3, read-out: t½ (min), Ave

| half-life at 0.5 μM [1] [min] | half-life at 0.5 μM [2] [min] | half-life at 0.5 μM [3] [min] | half-life at 0.5 μM [4] [min] | Compound |
| --- | --- | --- | --- | --- |
| 24.3 | 23.8 | 23.1 | 23.7 | [2H]C([2H])([2H])Oc1cc2ncnc(Nc3ccc(F)c(Cl)c3)c2cc1OC([2H])([2H])C([2H])([2H])C([2H])([2H])N1C([2H])([2H])C([2H])([2H])OC([2H])([2H])C1([2H])[2H] [Compound 101, N-(3-Chloro-4-fluorophenyl)-7-(methoxy-d3)-6-(3-(morpholino-d8)propoxy-d6)quinazolin-4-amine] |
| 22.5 | 20.8 | 21.8 | 21.7 | [2H]C([2H])([2H])Oc1cc2ncnc(Nc3ccc(F)c(Cl)c3)c2cc1OC([2H])([2H])C([2H])([2H])C([2H])([2H])N1CCOCC1 [Compound 102, N-(3-Chloro-4-fluorophenyl)-7-(methoxy-d3)-6-(3-morpholino(propoxy-d6))quinazolin-4-amine] |
| 22.5 | 20.8 | 21.8 | 21.7 | [2H]C([2H])([2H])Oc1cc2ncnc(Nc3ccc(F)c(Cl)c3)c2cc1OCCCN1CCOCC1 [Compound 104, N-(3-Chloro-4-fluorophenyl)-7-(methoxy-d3)-6-(3-morpholinopropoxy)quinazolin-4-amine] |
| 19.4 | 17.6 | 19.8 | 18.9 | COc1cc2ncnc(Nc3ccc(F)c(Cl)c3)c2cc1OCCCN1CCOCC1 [Gefitinib, (3-chloro-4-fluoro-phenyl)-[7-methoxy-6-(3-morpholin-4-yl-propoxy)-quinazolin-4-yl]-amine] |
